“And” between values parts separate entries of the source, which are not always exact repeats. Equal entries are not always repeated. “Also recorded” adds a separate entry of the source.
Experiments:
[1] = system: hTERT; assay: qPCR of pluripotency genes in CD34+ cells; format: cell-based, human; conditions: VPA-treated CD34+ cells
Protocol: Total RNA was extracted from the human ES cell line 89 (WA09; WiCell Research Institute Inc., Madison, Wis., USA), PCs, reisolated CD34+ cells from control cultures or cultures containing VPA in SF and SC media using TRIzol and an RNeasy kit from QIAGEN, CA. Total RNA (0.5-1.0 μg) was reverse transcribed into cDNA using an RNA to cDNA EcoDry Premix kit (Clontech). The primer sequences are listed in Table 6. qPCR was performed using SYBR Green (Thermo Fisher Scientific) and the Realplex thermocycler (Eppendorf). All experiments were performed in triplicate, and non-template controls (lacking cDNA template were included in each assay. GAPDH served as an internal standard. The amplicons were run on a 2% agarose gel with a 50-bp-size (DNA ladder) marker.

[2] = system: HDAC4; assay: HDAC protein levels in CB-MNCs, Western blot densitometry; format: cell-based, human; conditions: 24 hr, SCR 8 μM, C433 80 μM, VPA 1.25 mM
Excerpt: (§1) Cellular proteins were separated by SDS-PAGE using Novex (Invitrogen) and transferred by iBlot (Invitrogen). The membranes were probed with mAbs against individual histone deacetylases (HDAC1, HDAC2, HDAC3, HDAC4, HDAC5, HDAC6, and β-actin; Cell Signaling Technology) and developed using a chemiluminescence system with HRP-conjugated secondary antibodies (Amersham Biosciences) according to the manufacturer's instructions.

[3] = system: class I and II HDAC; assay: HDAC protein levels in CB-MNCs, Western blot, all HDACs examined; format: cell-based, human; conditions: after 2 hours of treatment
Excerpt: as §1

[4] = system: NSG mice; assay: Teratoma formation assay in NSG mice; format: in vivo; conditions: 1×10^6 re-isolated CD34+ cells subcutaneously, 8 weeks
Protocol: CD34+ cells (1×10^6) re-isolated from control cultures or cultures containing VPA or a similar number of ES cells were suspended in 100 μl of PBS. These cells were mixed with an equal volume of ice-cold Matrigel and injected subcutaneously into the right hind limb of three NSG mice per group (re-isolated CD34+ cells from control cultures, VPA-treated cultures, and ES cells). The mice were observed weekly for teratoma formation and sacrificed after 8 weeks. Teratomas were dissected, fixed, sectioned, and stained with H&E and examined morphologically (O'Connor et al., “Functional Assays for Human Embryonic Stem Cell Pluripotency,” Methods Mol Biol. 690:67-80 (2011), which is hereby incorporated by reference in its entirety).

[5] = system: NSG mice; assay: Homing assay of re-isolated CD34+ cells in NSG mice; format: in vivo; conditions: 16 and 48 hours after infusion, versus control conditions
Protocol: The homing of re-isolated CD34+ cells (5×10^5/mouse) after treatment under control conditions or with VPA was performed as previously described (Shivtiel et at, “CD45 Regulates Homing and Engraftment of Immature Normal and Leukemic Human Cells in Transplanted Immunodeficient Mice,” Exp. Hematol. 39(12):1161-1170 (2011), which is hereby incorporated by reference in its entirety). The recipient NSG mice were purchased from the Jackson Laboratory and sublethally irradiated (300 cGy) 4 hours prior to infusion of the re-isolated CD34+ cells via the tail vein. Sixteen and 48 hours after their infusion, BM cells were harvested from 2 femurs and 2 tibias from each recipient mouse and analyzed by flow cytometry for the presence of human CD34+ cells using a human CD34-APC mAb. The homing of these cell populations was determined by quantitating the number of CD34+ cells per 10^6 acquired events in the BM of the recipient mice. […] Eight NSG mice received CD34+ cells cultured under control conditions, and 10 mice received CD34+ cells from VPA-containing cultures.

[6] = system: HDAC2; assay: HDAC protein levels in CB-MNCs, Western blot densitometry; format: cell-based, human; conditions: 24 hr, SCR 8 μM, C433 80 μM, VPA 1.25 mM
[7] = system: CB CD34+ cells; assay: Ex vivo expansion of CB CD34+ cells with HDACIs, phenotypic analysis by flow cytometry; format: cell-based, human; conditions: for fold expansion of CD34+ cells / fold expansion of CD34+CD90+ cells: cytokines
Excerpt: CB collections were purchased from the Placental Blood Program at the New York Blood Center. CB-MNCs were isolated by Ficoll-Hypaque density centrifugation, and CD34+ cells were purified by immunotnagnetic selection as previously described (Chaurasia et al., “Chromatin-Modifying Agents Promote the Ex vivo Production of Functional Human Erythroid Progenitor Cells,” Blood 117:4632-4641 (2011), which is hereby incorporated by reference in its entirety). Highly purified (90%-98%) PCs (4.0-5.0×10^4) were cultured in SF Stemline II (Sigma-Aldrich) culture medium or IMDM (Lonza) containing 30% FBS (HyClone Laboratories) supplemented with 150 ng/ml SCF, 100 ng/ml fms-like tyrosine kinase receptor 3 (FLT3 ligand), 100 ng/ml thrombopoietin (TPO), and 50 ng/ml interleukin 3 (IL-3) (R&D Systems) and incubated in a humidified incubator maintained at 37° C. with 5% CO2. […] The cell populations studied and the various conditions under which they were cultured are referred to by specific terms listed in Table 1. Viable PC and cultured cells were enumerated using the trypan blue exclusion method. The fold expansion of CD34+ cells or subpopulations was calculated based on the number of CD34+ cells determined to be present in an individual CB collection and the number of CD34+ cells that would have been generated if all of the CD34+ cells within that primary CB collection were cultured using the various culture conditions described. PC or cultured cells expanded in the presence or absence of HDACIs were stained with an anti-human CD34 mAb or an isotype-matched control mAb and analyzed using a FACSCanto II (BD). CD34+ cells were re-isolated using a CD34+ cell isolation kit, as previously described, for further phenotypic and functional analyses. All mAbs were purchased from BD Biosciences and Cell Signaling Technology. Phenotypic analyses ([…], […], and […]7) of the ex vivo-expanded cells after 7 days in control cultures or cytokines plus an HDACI were performed as previously described (Chaurasia et al., “Chromatin-Modifying Agents Promote the Ex vivo Production of Functional Human Erythroid Progenitor Cells,” Blood 117:4632-4641 (2011), which is hereby incorporated by reference in its entirety).

[8] = SF cultures containing VPA, 7 days

## CCCC(CCC)C(=O)O [VPA, valproic acid]
[1]
  hTERT expression: not upregulated
[2]
  HDAC4 expression relative to b-ACTIN (%): 30.5 ± 9.3%
[3]
  inhibition of HDAC expression: did not inhibit HDAC expression
[4]
  teratoma formation: did not form teratomas; also recorded: neither control nor VPA treated CD34+ cells formed teratomas
[5]
  homing of CD34+ cells to the marrow of NSG mice: increased horning of CD34+ cells
[6]
  HDAC2 expression relative to b-ACTIN (%): 45.8 ± 25.2%
[7]; 7 days of culture with cytokines plus HDACI
  percentage of CD34+CD90+ cells: 75.2%±10.7% and 74.2±9.8%
[7]; SC conditions, 7 days
  fold expansion of CD34+ cells: 78 fold
  fold expansion of CD34+CD90+ cells: 89 fold
[7]; SF conditions, 7 days
  fold expansion of CD34+ cells: 213 fold
  fold expansion of CD34+CD90+ cells: 20,202 fold
[7]; [8]
  CD34+CD90+ cells expressing CD45RA: 1.9%±2.1%
  CD34+CD90+ cells expressing CD49f: 47.0%±4.4%
[7]; VPA-treated cells after 7 days
  B Cells (CD19): 0.5±0.1%
  CD14+ cells: 3.9±1.5%
  CD41+ cells: 8.9±2.0%
  Glycophorin+ cells: 17.0±5.4%
  T Cells (CD3): 0.2±0.3%

Reference: patent US11261429B2, “Enriched and expanded human cord blood stem cells for treatment of hematological disorders” (ICAHN SCHOOL OF MEDICINE AT MOUNT SINAI, priority 2013, dated 2022)
